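Grown in 96-well plates, cells were treated for 48 hours with each compound at five concentrations. Insufficient inhibition: endpoint recorded as highest concentration tested. GI50 = concentration required for 50% inhibition of growth.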 The source made the active and inactive calls. No stated cut-off is given here; in the data, active = GI50 up to about 1.1 µM and inactive = higher.
Tests used:
Assay in all cases: NCI tumour cell line growth inhibition, 48 h
SNB-19 = system: SNB-19
ACHN = system: ACHN
SF-295 = system: SF-295
KM12 = system: KM12
SN12C = system: SN12C
UACC-257 = system: UACC-257
EKVX = system: EKVX
UACC-62 = system: UACC-62
SK-MEL-2 = system: SK-MEL-2
TK-10 = system: TK-10
K562 = system: K562
MOLT-4 = system: MOLT-4
HL-60 = system: HL-60
HOP-62 = system: HOP-62
Malme-3M = system: Malme-3M
HCT-116 = system: HCT-116
NCI-H522 = system: NCI-H522
SR = system: SR

Measured: GI50

COc1ccc(OC)c(NC(=O)C(=O)C(C(C)=O)c2nc3ccc(Cl)cc3nc2O)c1 (configuration not stated)
inactive: SNB-19 > 50 µM | ACHN > 50 µM | SF-295 > 50 µM | KM12 > 50 µM | SN12C > 50 µM | UACC-257 > 50 µM | EKVX > 50 µM | UACC-62 > 50 µM | SK-MEL-2 > 50 µM | TK-10 > 50 µM | K562 > 50 µM | MOLT-4 > 50 µM | HL-60 > 50 µM | HOP-62 > 50 µM | Malme-3M > 50 µM | HCT-116 > 50 µM

[N-]=[N+]=Nc1nnc(CCCCc2nnc(N=[N+]=[N-])o2)o1
inactive: SNB-19 > 100 µM | ACHN > 100 µM | SF-295 > 100 µM | NCI-H522 > 100 µM | KM12 91.4 µM | SN12C > 100 µM | UACC-257 > 100 µM | EKVX > 100 µM | UACC-62 > 100 µM | SK-MEL-2 > 100 µM | TK-10 > 100 µM | K562 > 100 µM | MOLT-4 > 100 µM | HOP-62 > 100 µM | Malme-3M > 100 µM | HCT-116 > 100 µM

CN/N=C(\C(=O)Nc1ccc(C(F)(F)F)cc1[N+](=O)[O-])C(c1cnc2ccc([N+](=O)[O-])cc2n1)[N+](=O)[O-] (configuration not stated)
inactive: SNB-19 96.6 µM | SR 27.7 µM | ACHN 21.8 µM | SF-295 37.7 µM | NCI-H522 6.84 µM | KM12 48.6 µM | SN12C > 100 µM | UACC-257 44.5 µM | EKVX 6.71 µM | UACC-62 > 10 µM | SK-MEL-2 > 100 µM | K562 8.79 µM | MOLT-4 14.8 µM | HOP-62 33 µM | Malme-3M > 100 µM | HCT-116 41.4 µM

Cc1ccc(SC(C)/C=C/NNC2=NN=C(c3ccccc3)C(c3ccccc3)N2)cc1 (configuration not stated)
inactive: SR 11.5 µM | ACHN 29.6 µM | SF-295 30.3 µM | NCI-H522 23.1 µM | KM12 27.5 µM | SN12C 36.4 µM | UACC-257 31.5 µM | EKVX 44.8 µM | UACC-62 14.9 µM | SK-MEL-2 23.4 µM | TK-10 75.7 µM | K562 36.9 µM | MOLT-4 13.4 µM | HL-60 13 µM | Malme-3M 49.8 µM | HCT-116 39.6 µM

COC(=O)/C(=N/NC(C)(C)C)C(C(=O)C=C(C)C)C(=O)C(=O)Nc1ccc(Cl)cc1C (configuration not stated)
inactive: SNB-19 > 100 µM | SR > 100 µM | ACHN > 100 µM | SF-295 > 100 µM | NCI-H522 > 100 µM | KM12 > 100 µM | SN12C > 100 µM | UACC-257 > 100 µM | EKVX > 100 µM | UACC-62 > 100 µM | SK-MEL-2 > 100 µM | TK-10 > 100 µM | K562 > 100 µM | MOLT-4 > 100 µM | HL-60 > 100 µM | HOP-62 > 100 µM | Malme-3M > 100 µM | HCT-116 > 100 µM

O=C1NC(c2ccc(O)cc2)C2CCC1C2 (configuration not stated)
inactive: SNB-19 > 100 µM | SR > 100 µM | ACHN > 100 µM | SF-295 > 100 µM | NCI-H522 > 100 µM | KM12 > 100 µM | SN12C > 100 µM | UACC-257 > 100 µM | EKVX > 100 µM | UACC-62 > 100 µM | SK-MEL-2 > 100 µM | TK-10 > 100 µM | K562 > 100 µM | MOLT-4 > 100 µM | HL-60 > 100 µM | HOP-62 > 100 µM | Malme-3M > 100 µM | HCT-116 > 100 µM

COC(=O)c1cc(C(=O)OC)c(CC(=O)C(=O)NC2C3CC4CC(C3)CC2C4)nc1CC(=O)C(=O)NC1C2CC3CC(C2)CC1C3 (configuration not stated)
inactive: SNB-19 > 100 µM | SR 8.69 µM | ACHN > 100 µM | SF-295 > 100 µM | NCI-H522 > 100 µM | KM12 > 100 µM | SN12C > 100 µM | UACC-257 > 100 µM | EKVX > 100 µM | UACC-62 > 100 µM | SK-MEL-2 > 100 µM | TK-10 > 100 µM | K562 > 100 µM | MOLT-4 37.3 µM | HL-60 > 100 µM | HOP-62 > 100 µM | Malme-3M > 100 µM | HCT-116 > 100 µM

Nc1nc2c(ncn2Cc2ccccc2CCO)c(=O)[nH]1
inactive: SNB-19 > 100 µM | ACHN > 100 µM | SF-295 > 100 µM | NCI-H522 > 100 µM | KM12 > 100 µM | SN12C > 100 µM | EKVX > 100 µM | UACC-62 > 100 µM | SK-MEL-2 > 100 µM | TK-10 > 100 µM | K562 > 100 µM | MOLT-4 > 100 µM | HL-60 > 100 µM | HOP-62 > 100 µM | Malme-3M > 100 µM

COC(=O)/C=C(C)/C=C/C1OC(C)OCC1O (configuration not stated)
inactive: SNB-19 > 100 µM | ACHN > 100 µM | SF-295 > 100 µM | NCI-H522 > 100 µM | KM12 > 100 µM | SN12C > 100 µM | UACC-257 > 100 µM | EKVX > 100 µM | UACC-62 > 100 µM | TK-10 > 100 µM | K562 > 100 µM | MOLT-4 > 100 µM | HL-60 > 100 µM | HOP-62 > 100 µM | Malme-3M > 100 µM

O=C(Nc1ccc(Br)cc1)C(=O)C(C(=O)c1ccc(Cl)c(Cl)c1)C1OC(=O)c2ccccc21 (configuration not stated)
inactive: SNB-19 16.7 µM | SR 17.3 µM | ACHN 16.3 µM | SF-295 15.2 µM | NCI-H522 18.3 µM | KM12 16.6 µM | SN12C 20.2 µM | UACC-257 16 µM | EKVX 28.8 µM | UACC-62 13.4 µM | TK-10 20.2 µM | K562 12.5 µM | MOLT-4 10.4 µM | HL-60 17.2 µM | HOP-62 15.2 µM | Malme-3M 10.4 µM | HCT-116 12.5 µM

O=C1c2ccccc2N2OC3(N4CCOCC4)CCCC3C12c1ccccc1 (configuration not stated)
inactive: SNB-19 > 100 µM | SR > 100 µM | ACHN > 100 µM | SF-295 > 100 µM | NCI-H522 86.1 µM | SN12C > 100 µM | UACC-257 > 100 µM | EKVX > 100 µM | UACC-62 93.1 µM | K562 > 100 µM | MOLT-4 > 100 µM | HL-60 77.1 µM | HOP-62 > 100 µM | Malme-3M > 100 µM | HCT-116 > 100 µM

CCN(CC)c1ccc(/N=N/c2ccc(-c3nc4cccn(C)c-4n3)cc2)cc1
inactive: SNB-19 15.6 µM | SR 2.51 µM | SF-295 5.04 µM | NCI-H522 7.11 µM | KM12 8.95 µM | SN12C 6.04 µM | UACC-257 9.14 µM | EKVX 18.5 µM | UACC-62 11.9 µM | SK-MEL-2 17.5 µM | TK-10 27.9 µM | K562 2.86 µM | MOLT-4 2.23 µM | HL-60 1.75 µM | HOP-62 10.4 µM | Malme-3M 12.1 µM | HCT-116 3.61 µM

Source: ChEMBL document CHEMBL1201862, “PubChem BioAssay data set” (2004)
